Laboratory results: patent US20150191519A1, “VECTORS ENCODING A PARALYTIC PEPTIDE” (Soricimed Biopharma Inc., priority 2002, published 2015)

How the values were obtained:
[1] = tested on: human ovarian carcinoma cell line (OV 2008); assay: calcium ion uptake by FURA-loaded ovarian carcinoma cells (fluorescence); format: cell-based; details: for calcium uptake by OV-2008 cell line: FURA fluorescence after calcium chloride 2.5 mM, calcium chloride 5.0 mM, FIG. 16
Procedure: A human ovarian carcinoma cell line (OV 2008) was grown in MegaCell supplemented (Sigma Aldrich Chemical Co.) with 3% fetal calf serum (v/v), L-glutamine (584 mg/500 mL), and antibiotics penicillin and streptomycin (50 ug/ml) at 37° C. and in a humidified 5% carbon dioxide atmosphere. After confluence, the cells were harvested by incubation with Trypsin EDTA solution low in calcium and magnesium Dulbecco phosphate buffered saline (DPBS) at 37° C. and gentle shaking to detach them from the culture flask surface. After centrifugation and washing in the calcium-depleted medium, cells were incubated with 5 uM FURA 2 AM for 60 minutes to internalize this calcium sensitive fluorophore. After centrifuging and washing twice with DPBS, cells were allowed to de-esterify the FURA 2 AM for 30 minutes at 37° C., activating the calcium-sensitive FURA. Cells were then incubated with aliquots of a solution of pure soricidin. Fluorescent analysis used excitation at 340 nm and emission at a wavelength of 510 nm. After recording the baseline fluorescence of the cells, a bolus of calcium chloride (to final concentration of 2.5 mM) was delivered to the cell suspension and the fluorescence remeasured. After recording the fluorescence, the sample was treated with a bolus of potassium chloride (final concentration 20 mM) to activate any voltage gated calcium channels. Finally, the cells were treated with another bolus of […] raising the calcium ion concentration to 5.0 mM. The control situation was no treatment with soricidin peptide but with identical other treatments.
This transient receptor potential (TRP) calcium channel was blocked by soricidin. FIG. 16 illustrates

[2] = tested on: insect nerve tissue; assay: calcium ion uptake by excised insect nerve tissue (FURA fluorescence); format: cell-based, flour beetle larvae (meal worms); details: FIG. 17
Procedure: Central nerve pairs running along 5 body segments (including ganglia) were excised from flour beetle larvae (meal worms) and suspended in buffered invertebrate saline containing FURA 2 AM. After 60 minutes, the nerve tissue was removed from this solution, briefly washed in buffered saline and bathed with a solution of pure soricidin for 10 minutes. The nerve tissue was next immersed in a cuvette containing very low calcium ion concentration and a baseline fluorescence value recorded. A bolus of calcium chloride (to a final concentration of 5 mM) was added and, after 5 minutes, the fluorescence was determined. Finally, a bolus of potassium chloride was added to the preparation to a final concentration of 20 mM. The fluorescence was again determined. The control situation was exclusion of the soricidin, substituting instead a sham solution of buffered saline.

[3] = isoelectric pH by capillary isoelectric focusing; format: physicochemical; details: migration time 33.9 min; calibrated with pI standard proteins
Procedure: The isoelectric pH of the shrew peptide soricidin was determined after calibration of the Beckmann-Coulter P/ACE MDQ Capillary Electrophoresis System with proteins of known isoelectric pH (2.75, 5.10, 5.90 and 9.45) and then co-isoelectric focusing of the standards with soricidin. […] The soricidin migration time (33.9 min) provided a pI of 4.20.

For “soricidin: 54 amino acid paralytic peptide isolated from shrew (Blarina brevicauda) submaxilary saliva gland, sequence of FIG. 1A (DCSQDCAACSILARPAELNTETCILECEGKLSSNDTEGGLCKEFLHPSKVDLPR; listed as Blarina brevicauda)”, the “calcium uptake by OV-2008 cell line” value ([1]; KCl 20 mM) was “inhibits calcium uptake”, the “calcium uptake by OV-2008 cell line” value ([1]; KCl 20 mM, listed as Soricidin) was “strongly inhibits calcium uptake” and the “TRP calcium channel CaT1 (TRPV6) of ovarian carcinoma cells” value ([1]; OV-2008) was “blocked”. For the same substance, the “small increase in calcium uptake in response to potassium ion challenge” value ([1]; OV-2008, KCl 20 mM) was “eliminated”, the “dose dependence of inhibition of calcium uptake” value ([1]; OV-2008, increases in amount caused no additional inhibition) was “saturated” and the “calcium uptake / calcium channels of insect neural tissue” value [2] was “effectively blocks the general and voltage-gated calcium channels”. For the same substance, the “calcium uptake / calcium channels of insect neural tissue” value ([2]; listed as Soricidin) was “inhibits calcium uptake”, the “increase in fluorescence (FURA/Calcium complex) less than in control” value ([2]; nerve bathed in pure soricidin 10 minutes, calcium chloride and KCl 20 mM challenge) was 92% and the “isoelectric pH (pI)” value [3] was 4.20.
